Measurements: paper PMC7827406, “Structure–Activity Relationship (SAR) Study of Spautin-1 to Entail the Discovery of Novel NEK4 Inhibitors” (International Journal of Molecular Sciences, 2021)
Like-named read-outs stand apart in the source and are kept apart here.

Legend:
Experiment in all cases: biochemical
Parameters in all cases: Eurofins KinaseProfiler full panel at Km ATP, residual kinase activity (%) relative to DMSO
[1] = target: T1, PI3 Kinase (p110a(H1047R)/p85a)(m) (Mus musculus, UniProt P42337, H1047R)
T1 construct: gene Pik3ca
T1 sequence (P42337 whole entry H1047R): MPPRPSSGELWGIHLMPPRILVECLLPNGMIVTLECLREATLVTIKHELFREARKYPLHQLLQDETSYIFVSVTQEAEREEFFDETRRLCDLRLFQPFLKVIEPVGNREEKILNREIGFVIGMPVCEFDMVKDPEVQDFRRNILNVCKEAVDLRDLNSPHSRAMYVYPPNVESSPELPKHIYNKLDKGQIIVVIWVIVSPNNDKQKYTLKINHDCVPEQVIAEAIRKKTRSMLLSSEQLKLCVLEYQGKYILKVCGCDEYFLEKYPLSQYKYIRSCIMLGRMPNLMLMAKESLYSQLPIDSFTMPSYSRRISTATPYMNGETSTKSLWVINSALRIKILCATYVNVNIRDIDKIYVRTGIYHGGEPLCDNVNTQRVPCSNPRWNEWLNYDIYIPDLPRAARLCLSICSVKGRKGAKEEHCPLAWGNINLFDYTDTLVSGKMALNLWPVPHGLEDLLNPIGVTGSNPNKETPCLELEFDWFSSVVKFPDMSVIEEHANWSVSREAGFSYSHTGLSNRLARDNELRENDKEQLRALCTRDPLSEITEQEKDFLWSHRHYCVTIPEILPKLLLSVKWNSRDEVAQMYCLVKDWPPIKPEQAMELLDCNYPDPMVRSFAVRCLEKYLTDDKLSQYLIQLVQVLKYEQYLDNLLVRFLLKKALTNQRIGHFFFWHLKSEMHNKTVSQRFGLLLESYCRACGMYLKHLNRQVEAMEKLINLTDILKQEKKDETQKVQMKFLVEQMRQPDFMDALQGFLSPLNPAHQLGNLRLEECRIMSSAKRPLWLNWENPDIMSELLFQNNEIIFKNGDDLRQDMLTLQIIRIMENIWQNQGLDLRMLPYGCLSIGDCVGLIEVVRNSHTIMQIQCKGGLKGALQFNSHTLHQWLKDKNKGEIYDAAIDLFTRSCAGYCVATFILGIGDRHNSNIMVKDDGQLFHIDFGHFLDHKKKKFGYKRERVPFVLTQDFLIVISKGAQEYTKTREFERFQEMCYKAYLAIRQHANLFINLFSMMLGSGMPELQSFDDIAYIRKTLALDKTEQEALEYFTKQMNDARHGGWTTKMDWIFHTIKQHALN
T1 sequence (P26450 whole entry partner): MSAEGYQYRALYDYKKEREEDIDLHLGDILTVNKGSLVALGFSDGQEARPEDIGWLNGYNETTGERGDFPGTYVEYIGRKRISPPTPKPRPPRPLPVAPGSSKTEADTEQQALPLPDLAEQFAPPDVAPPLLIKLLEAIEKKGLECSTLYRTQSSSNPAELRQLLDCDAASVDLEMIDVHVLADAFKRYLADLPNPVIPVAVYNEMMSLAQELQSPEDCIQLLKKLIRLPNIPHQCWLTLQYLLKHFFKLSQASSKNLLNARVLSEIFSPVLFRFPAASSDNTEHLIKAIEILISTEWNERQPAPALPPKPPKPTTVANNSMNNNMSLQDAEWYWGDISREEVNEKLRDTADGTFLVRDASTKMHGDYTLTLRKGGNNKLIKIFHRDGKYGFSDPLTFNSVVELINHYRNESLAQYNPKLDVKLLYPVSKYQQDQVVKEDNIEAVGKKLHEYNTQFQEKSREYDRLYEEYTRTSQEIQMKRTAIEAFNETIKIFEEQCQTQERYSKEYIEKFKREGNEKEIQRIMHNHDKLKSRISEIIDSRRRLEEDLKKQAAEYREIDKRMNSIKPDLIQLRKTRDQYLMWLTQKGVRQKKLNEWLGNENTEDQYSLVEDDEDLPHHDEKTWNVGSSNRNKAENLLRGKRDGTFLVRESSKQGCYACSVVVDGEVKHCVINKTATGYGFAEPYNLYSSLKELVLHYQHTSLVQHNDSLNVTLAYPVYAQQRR
Outline: (§1)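 Radiometric kinase activity assays were run with ATP at Km and compounds at 10 µM, and remaining activity (%) was reported. A separate competitive binding screen measured DNA-tagged kinase displaced from immobilized active-site ligands by qPCR, giving percent kinase still bound at 10 µM compound in DMSO.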

GRK2(h) = target: T2, GRK2(h) (Homo sapiens, UniProt P25098)
T2 sequence (P25098 1-689): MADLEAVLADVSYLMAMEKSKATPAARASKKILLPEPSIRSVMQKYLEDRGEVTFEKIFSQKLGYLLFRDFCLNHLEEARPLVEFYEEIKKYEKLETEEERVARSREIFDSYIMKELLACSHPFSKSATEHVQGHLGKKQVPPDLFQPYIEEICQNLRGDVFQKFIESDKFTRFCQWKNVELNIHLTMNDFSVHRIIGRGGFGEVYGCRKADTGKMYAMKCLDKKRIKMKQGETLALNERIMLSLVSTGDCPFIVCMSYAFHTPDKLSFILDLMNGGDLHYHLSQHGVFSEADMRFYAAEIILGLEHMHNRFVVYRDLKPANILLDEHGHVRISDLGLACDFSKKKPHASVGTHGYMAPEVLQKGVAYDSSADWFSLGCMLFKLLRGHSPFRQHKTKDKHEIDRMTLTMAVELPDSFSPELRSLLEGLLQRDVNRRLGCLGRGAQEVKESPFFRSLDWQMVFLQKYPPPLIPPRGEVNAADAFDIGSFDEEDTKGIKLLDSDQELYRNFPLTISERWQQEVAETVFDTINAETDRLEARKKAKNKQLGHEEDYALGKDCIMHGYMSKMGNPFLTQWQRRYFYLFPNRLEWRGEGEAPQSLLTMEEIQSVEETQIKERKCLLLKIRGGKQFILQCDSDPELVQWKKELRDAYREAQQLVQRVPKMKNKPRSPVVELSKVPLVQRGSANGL
Outline: as §1

Aurora-B(h) = target: T3, Aurora-B(h) (Homo sapiens, UniProt Q96GD4)
T3 construct: gene AURKB
T3 sequence (Q96GD4 whole entry): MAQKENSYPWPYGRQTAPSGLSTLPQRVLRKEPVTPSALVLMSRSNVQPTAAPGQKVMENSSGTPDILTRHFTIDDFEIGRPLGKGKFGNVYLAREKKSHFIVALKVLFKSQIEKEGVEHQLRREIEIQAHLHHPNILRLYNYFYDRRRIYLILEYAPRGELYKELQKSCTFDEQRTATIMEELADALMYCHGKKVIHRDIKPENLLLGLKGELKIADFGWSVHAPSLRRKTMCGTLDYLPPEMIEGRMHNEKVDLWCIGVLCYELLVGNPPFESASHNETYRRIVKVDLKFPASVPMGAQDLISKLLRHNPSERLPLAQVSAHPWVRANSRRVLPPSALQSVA
Outline: as §1

EphA3(h) = target: T4, EphA3(h) (Homo sapiens, UniProt P29320)
T4 sequence (P29320 1-983): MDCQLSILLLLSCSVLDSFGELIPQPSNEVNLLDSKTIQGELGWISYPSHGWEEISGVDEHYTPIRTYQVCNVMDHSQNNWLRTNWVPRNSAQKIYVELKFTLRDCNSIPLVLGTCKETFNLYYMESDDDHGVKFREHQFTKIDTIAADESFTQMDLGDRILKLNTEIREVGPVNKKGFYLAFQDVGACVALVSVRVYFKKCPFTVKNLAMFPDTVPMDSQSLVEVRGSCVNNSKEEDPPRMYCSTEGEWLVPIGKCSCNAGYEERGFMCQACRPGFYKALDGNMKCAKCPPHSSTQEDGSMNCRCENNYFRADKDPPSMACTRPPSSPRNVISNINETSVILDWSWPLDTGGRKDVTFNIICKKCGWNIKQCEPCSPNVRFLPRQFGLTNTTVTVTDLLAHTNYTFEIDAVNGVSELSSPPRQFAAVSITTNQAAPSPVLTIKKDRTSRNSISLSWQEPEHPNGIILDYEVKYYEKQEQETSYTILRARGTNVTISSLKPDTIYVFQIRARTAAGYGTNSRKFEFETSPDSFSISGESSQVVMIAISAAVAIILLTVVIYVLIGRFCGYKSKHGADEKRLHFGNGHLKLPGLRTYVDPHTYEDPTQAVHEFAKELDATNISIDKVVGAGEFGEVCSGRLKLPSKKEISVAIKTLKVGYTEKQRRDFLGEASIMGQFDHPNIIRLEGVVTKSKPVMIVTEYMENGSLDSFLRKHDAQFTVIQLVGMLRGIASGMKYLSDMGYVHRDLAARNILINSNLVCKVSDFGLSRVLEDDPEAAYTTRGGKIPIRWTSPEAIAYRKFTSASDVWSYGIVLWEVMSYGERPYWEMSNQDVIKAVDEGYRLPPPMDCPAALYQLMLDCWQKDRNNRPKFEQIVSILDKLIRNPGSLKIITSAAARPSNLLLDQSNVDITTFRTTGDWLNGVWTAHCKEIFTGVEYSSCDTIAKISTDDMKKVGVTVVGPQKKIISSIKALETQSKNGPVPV
Outline: as §1

c-RAF(h) = target: T5, c-RAF(h) (Homo sapiens, UniProt P04049)
T5 construct: gene RAF1
T5 sequence (P04049 whole entry): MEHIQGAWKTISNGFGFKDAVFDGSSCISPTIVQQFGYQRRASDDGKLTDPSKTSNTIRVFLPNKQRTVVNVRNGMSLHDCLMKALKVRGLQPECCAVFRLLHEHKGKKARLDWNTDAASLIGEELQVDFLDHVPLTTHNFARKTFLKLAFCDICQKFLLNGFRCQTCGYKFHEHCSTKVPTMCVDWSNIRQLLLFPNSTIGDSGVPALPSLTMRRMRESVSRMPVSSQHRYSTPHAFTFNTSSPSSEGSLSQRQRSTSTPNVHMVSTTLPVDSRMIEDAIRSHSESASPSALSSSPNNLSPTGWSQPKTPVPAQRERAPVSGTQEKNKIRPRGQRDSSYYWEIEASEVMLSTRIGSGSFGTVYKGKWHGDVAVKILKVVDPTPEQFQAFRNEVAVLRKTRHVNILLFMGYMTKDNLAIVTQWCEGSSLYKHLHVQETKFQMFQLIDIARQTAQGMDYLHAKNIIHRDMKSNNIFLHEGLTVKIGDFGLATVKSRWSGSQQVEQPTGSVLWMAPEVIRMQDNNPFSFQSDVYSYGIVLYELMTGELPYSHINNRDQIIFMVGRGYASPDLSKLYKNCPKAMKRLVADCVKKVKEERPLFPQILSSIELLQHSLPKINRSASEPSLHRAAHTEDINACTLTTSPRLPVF
Outline: as §1

[2] = read-out: Residual activity (%) Spautin-1 5aa
[3] = read-out: Residual activity (%) 5as
[4] = read-out: Residual activity (%) 5at
[5] = read-out: Residual activity (%) 5ay

Structure (SMILES): Fc1ccc(CNc2ncnc3ccc(F)cc23)cc1 [5aa, 6-Fluoro-N-(4-fluorobenzyl)-4-Quinazolinamine]
- remaining activity at 10 µM [1, 2]: 96%
- remaining activity at 10 µM (GRK2(h); [2]): 107%
- remaining activity at 10 µM (Aurora-B(h); [2]): 85%
- remaining activity at 10 µM (EphA3(h); [2]): 116%
- remaining activity at 10 µM (c-RAF(h); [2]): 110%

Structure (SMILES): Fc1ccc(CCNc2ncnc3ccc(F)cc23)cc1 [5as, 6-Fluoro-N-[2-(4-Fluorophenyl)Ethyl]-4-Quinazolinamine]
- remaining activity at 10 µM [1, 3]: 95%
- remaining activity at 10 µM (GRK2(h); [3]): 101%
- remaining activity at 10 µM (Aurora-B(h); [3]): 69%
- remaining activity at 10 µM (EphA3(h); [3]): 108%
- remaining activity at 10 µM (c-RAF(h); [3]): 114%

Structure (SMILES): Fc1ccc2ncnc(NCCc3ccc(Cl)cc3)c2c1 [5at, N-[2-(4-Chlorophenyl)Ethyl]-6-Fluoro-4-Quinazolinamine]
- remaining activity at 10 µM [1, 4]: 94%
- remaining activity at 10 µM (GRK2(h); [4]): 107%
- remaining activity at 10 µM (Aurora-B(h); [4]): 48%
- remaining activity at 10 µM (EphA3(h); [4]): 94%
- remaining activity at 10 µM (c-RAF(h); [4]): 117%

Structure (SMILES): COc1ccc2ncnc(Nc3cccc(F)c3)c2c1 [5ay, N-(3-Fluorophenyl)-6-Methoxy-4-Quinazolinamine]
- remaining activity at 10 µM [1, 5]: 93%
- remaining activity at 10 µM (GRK2(h); [5]): 95%
- remaining activity at 10 µM (Aurora-B(h); [5]): 59%
- remaining activity at 10 µM (EphA3(h); [5]): 110%
- remaining activity at 10 µM (c-RAF(h); [5]): 102%
